Laboratory results: patent US8673909B2, “Indole compounds and methods for treating visceral pain” (NeurAxon, Inc., priority 2007, dated 2014)
pIC50: −log10 of the molar value.

How the values were obtained:
[1] = biological target: Recombinant human inducible NOS (iNOS) (Homo sapiens, UniProt P35228); assay: Human iNOS assay, radiometric; format: biochemical; details: Table 10, human iNOS; read-out: iNOSh
Experimental: Recombinant human inducible NOS (iNOS) was produced in Baculovirus-infected Sf9 cells (ALEXIS). […] 15 μL of test substances are added to the mixture with the specific enzyme and pre-incubated at RT for 15 min. • 2. […] The incubation is carried out at 37° C. for 45 min. • 4. […] An aliquot 70 μL of the supernatant is added to 100 μL scintillation fluid. • 8.
The total volume of the reaction mixture is 150 μL in every well. All assays are performed at least in duplicate. Standard deviations are 10% or less.

5-HT1D = 5-HT1D (Bos taurus, UniProt F1MMU1); assay: 5-HT1D binding assay (agonist radioligand), bovine caudate membranes; details: Table 11, bovine 1D receptor binding; read-out: 5HT1D
Experimental: (§1) 5-HT1D binding assays (agonist radioligand) were performed using bovine caudate membranes according to the methods of Heuring and Peroutka (J. Neurosci., 7: 894-903 (1987)). 5-HT1B (rat cerebral cortex) binding assays (agonist radioligand) were performed according to the method of Hoyer et. al. (Eur. J. Pharmacol., 118: 1-12 (1995)). For the purpose of result analysis, the specific ligand binding to the receptors is defined as the difference between the total binding and the nonspecific binding as determined in the presence of an excess of unlabelled ligand. The results are expressed as a percent of control specific binding obtained in the presence of the test compounds.

5-HT1B = biological target: T1, 5-HT1B (Rattus norvegicus, UniProt P28564); assay: 5-HT1B binding assay (agonist radioligand), rat cerebral cortex; details: Table 11, rat 1B receptor binding
T1 construct: from tissue; host or cells: rat cerebral cortex
Experimental: as §1, with “compounds. IC50 values (concentration causing a half-maximal inhibition of control specific binding) and Hill coefficients (nH) were determined by non-linear regression analysis of the competition curves using Hill equation curve fitting and the inhibition constants (Ki) were calculated from the Cheng Prusoff equation (Ki=IC50/(1+(L/KD)), where L=concentration of radioligand in the assay, and KD=affinity of the radioligand for the receptor).” for “compounds.”

[2] = test system: rats with experimental pancreatitis; assay: Pancreatitis visceral pain model (DBTC), referred abdominal hypersensitivity, von Frey; format: in vivo, rat
Experimental: Adult male Sprague Dawley rats (Harlan, Indianapolis, Ind.), weighing 150-200 g were maintained in a climate-controlled room with ad lib food and water on a 12-h light/dark cycle (lights on at 07:00 hours). All procedures followed the policies of the International Association for the Study of Pain and the NIH guidelines for the handling and use of laboratory animals. Studies were approved by the University of Arizona IACUC.
Pancreatitis was produced by a tail vein injection of dibutyltin dichloride (DBTC, Aldrich, Milwaukee, Wis., 0.25 cc) dissolved in 100% ethanol at a dose of 8 mg/kg under isofluorane anesthesia (2-3 liters/min, 4.0%/vol until anesthetized, then 2.5%/vol throughout the procedure) (Vera-Portocarrero et al., 2006). Control animals were injected with the vehicle solution only (100% ethanol, 0.25 cc).
Referred abdominal hypersensitivity in the pancreatitis model was quantified by measuring the number of withdrawals events evoked by application of a calibrated von Frey filament (determined by either abdominal withdrawal, licking of the abdominal area, or whole body withdrawal). Rats were placed inside Plexiglas boxes on an elevated fine fiberglass screen mesh and acclimated for 30 minutes before testing. A 4 g von Frey filament was applied from underneath through the mesh floor, to the abdominal area at different points on the surface. […] The mean occurrence of withdrawal events in each trial is expressed as the number of responses to 10 applications as previously described (Vera-Portocarrero et al., 2003).
Significant differences between each experimental group for the behavioral test across time were detected by a two-factor ANOVA follow by the Fishers Least Significance Difference post-hoc test. One-factor ANOVA was used to detect significant differences in behavioral outcomes within each experimental group over time. A linear regression analysis was used to detect the dose-dependency of the effects. Significance was established at the p<0.05 level.

[3] = biological target: T2, Nitric oxide synthase (neuronal, human recombinant) nNOS (Homo sapiens, UniProt P29475); assay: nNOS (human) enzyme assay, [3H]-L-arginine to L-citrulline; format: biochemical; details: for pIC50: Table 10, human nNOS, read-out: nNOSh; for e/n: Table 10, ratio eNOS/nNOS
T2 construct: purchased Axxora LLC ALX-201-068
T2 sequence (P29475 whole entry): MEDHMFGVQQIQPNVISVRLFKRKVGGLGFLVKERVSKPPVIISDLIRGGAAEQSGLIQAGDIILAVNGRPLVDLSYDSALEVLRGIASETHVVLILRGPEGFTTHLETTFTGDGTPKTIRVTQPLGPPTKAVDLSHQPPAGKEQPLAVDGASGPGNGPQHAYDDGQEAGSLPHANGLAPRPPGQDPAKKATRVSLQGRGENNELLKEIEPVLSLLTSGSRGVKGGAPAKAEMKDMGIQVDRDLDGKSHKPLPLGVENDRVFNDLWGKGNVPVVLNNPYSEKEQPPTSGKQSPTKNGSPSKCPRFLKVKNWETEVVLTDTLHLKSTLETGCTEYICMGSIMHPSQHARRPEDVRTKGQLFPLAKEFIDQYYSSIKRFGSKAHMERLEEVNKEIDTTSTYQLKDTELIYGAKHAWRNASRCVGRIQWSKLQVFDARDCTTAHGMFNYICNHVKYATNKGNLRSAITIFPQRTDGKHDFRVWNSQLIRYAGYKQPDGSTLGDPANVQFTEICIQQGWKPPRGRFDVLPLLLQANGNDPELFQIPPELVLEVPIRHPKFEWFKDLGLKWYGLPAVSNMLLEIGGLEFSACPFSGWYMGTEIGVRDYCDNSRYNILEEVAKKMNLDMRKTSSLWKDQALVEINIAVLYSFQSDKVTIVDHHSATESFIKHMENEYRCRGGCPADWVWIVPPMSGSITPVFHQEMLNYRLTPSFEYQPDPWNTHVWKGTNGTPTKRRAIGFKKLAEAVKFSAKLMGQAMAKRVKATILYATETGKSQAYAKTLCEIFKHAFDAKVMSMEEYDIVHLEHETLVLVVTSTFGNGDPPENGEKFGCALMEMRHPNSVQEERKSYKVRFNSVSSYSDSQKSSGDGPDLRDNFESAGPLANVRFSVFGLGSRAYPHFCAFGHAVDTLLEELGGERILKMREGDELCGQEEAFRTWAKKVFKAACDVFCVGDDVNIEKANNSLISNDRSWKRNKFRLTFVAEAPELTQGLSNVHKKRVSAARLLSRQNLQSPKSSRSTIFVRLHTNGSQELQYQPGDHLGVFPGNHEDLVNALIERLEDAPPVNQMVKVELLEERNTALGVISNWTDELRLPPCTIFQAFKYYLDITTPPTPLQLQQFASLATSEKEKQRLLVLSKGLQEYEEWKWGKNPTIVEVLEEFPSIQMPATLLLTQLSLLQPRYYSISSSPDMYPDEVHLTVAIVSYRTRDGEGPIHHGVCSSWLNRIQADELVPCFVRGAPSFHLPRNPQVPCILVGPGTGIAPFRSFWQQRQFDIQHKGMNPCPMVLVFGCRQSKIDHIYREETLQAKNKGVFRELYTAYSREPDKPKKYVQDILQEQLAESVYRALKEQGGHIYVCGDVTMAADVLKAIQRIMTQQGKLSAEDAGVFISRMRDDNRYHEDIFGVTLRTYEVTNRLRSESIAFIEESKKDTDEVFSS

T1 sequence (P28564 whole entry): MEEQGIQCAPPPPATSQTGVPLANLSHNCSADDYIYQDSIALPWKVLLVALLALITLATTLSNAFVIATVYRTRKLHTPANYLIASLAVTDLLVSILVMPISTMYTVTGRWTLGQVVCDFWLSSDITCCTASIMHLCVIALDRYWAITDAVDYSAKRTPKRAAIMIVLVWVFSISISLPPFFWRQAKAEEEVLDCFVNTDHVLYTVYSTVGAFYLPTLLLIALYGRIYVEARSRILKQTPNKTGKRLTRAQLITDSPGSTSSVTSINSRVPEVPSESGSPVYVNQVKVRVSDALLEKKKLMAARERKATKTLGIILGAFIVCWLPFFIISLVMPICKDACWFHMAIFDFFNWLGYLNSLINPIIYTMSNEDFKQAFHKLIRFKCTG
5-HT1D, sequence (F1MMU1 1-377): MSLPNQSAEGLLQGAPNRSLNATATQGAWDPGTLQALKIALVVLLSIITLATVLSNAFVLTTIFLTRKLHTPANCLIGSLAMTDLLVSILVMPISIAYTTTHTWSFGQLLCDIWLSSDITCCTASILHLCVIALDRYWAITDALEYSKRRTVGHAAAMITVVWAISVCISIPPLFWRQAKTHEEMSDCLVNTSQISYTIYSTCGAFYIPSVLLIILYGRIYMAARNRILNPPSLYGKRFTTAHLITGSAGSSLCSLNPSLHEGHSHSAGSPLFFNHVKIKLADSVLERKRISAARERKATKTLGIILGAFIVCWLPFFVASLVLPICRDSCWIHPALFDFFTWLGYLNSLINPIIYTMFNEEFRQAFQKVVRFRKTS

| pIC50 [1] | pIC50 (5-HT1D) | pIC50 (5-HT1B) | pIC50 [3] | e/n [3] | SMILES | reversal of tactile allodynia in pancreatitis visceral pain model [2] |
| --- | --- | --- | --- | --- | --- | --- |
| 4.60 | 6.77 | 5.85 | 6.17 | 67 | CN1CCC(c2c[nH]c3ccc(NC(=N)c4cccs4)cc23)C1 (single isomer, unassigned) [Compound 6a, N-(3-(1-Methylpyrrolidin-3-yl)-1H-indol-5-yl)thiophene-2-carboximidamide] | does not reverse tactile allodynia |
| 4.70 | 7.10 | 6.15 | 6.69 | 100 | CN1CCC(c2c[nH]c3ccc(NC(=N)c4cccs4)cc23)C1 (single isomer, unassigned) [Compound 6b, N-(3-(1-Methylpyrrolidin-3-yl)-1H-indol-5-yl)thiophene-2-carboximidamide] | reverse the tactile allodynia |
